Blank lines part the entries; values can stand above or below the compound they belong to.
Key:
endogenous PDIA1 = endogenous PDIA1 (Homo sapiens, UniProt P07237); test: In-gel fluorescence: endogenous PDIA1 in MCF-7 lysates; format: binding; details: compound 5 μM, MCF-7 lysates 2 mg/mL
[1] = molecular target: prostaglandin E synthase 2 (PTGES2) (Homo sapiens, UniProt Q9H7Z7); test: Proteome-wide target enrichment, LC/LC-MS/MS spectral counts; details: MCF-7 cells, KSC-34 5 μM
[2] = molecular target: T1, purified, recombinant PDIA1 (Homo sapiens, UniProt P07237); test: In-gel fluorescence screen: covalent modification of purified recombinant PDIA1; format: binding; details: compound 5 μM, PDIA1 50 μg/mL, 1 hour, TAMRA in-gel fluorescence
T1 sequence (P07237 18-508): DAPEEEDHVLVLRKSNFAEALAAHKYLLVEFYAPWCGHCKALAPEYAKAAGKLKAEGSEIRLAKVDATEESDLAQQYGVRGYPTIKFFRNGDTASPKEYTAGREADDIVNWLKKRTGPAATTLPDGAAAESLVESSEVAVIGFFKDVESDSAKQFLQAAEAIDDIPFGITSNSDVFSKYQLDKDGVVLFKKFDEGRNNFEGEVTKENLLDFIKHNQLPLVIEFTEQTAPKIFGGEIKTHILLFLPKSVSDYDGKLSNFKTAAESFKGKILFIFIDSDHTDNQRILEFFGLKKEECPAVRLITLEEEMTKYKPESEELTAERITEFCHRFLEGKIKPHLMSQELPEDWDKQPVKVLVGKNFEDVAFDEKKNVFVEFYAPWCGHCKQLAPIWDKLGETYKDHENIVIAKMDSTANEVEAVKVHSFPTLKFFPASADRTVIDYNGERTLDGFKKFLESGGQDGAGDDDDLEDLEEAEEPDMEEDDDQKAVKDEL

[3] = molecular target: T1, purified, recombinant PDIA1; test: In-gel fluorescence: recombinant PDIA1 in the background of MCF-7 cell lysates; format: binding; details: PDIA1 50 μg/mL in MCF-7 cell lysates 1 mg/mL
PDIA4 [4] = molecular target: T2, PDIA4 (Homo sapiens, UniProt P13667); details: HEK293^DAX cells, KSC-34 40 μM, 1 h pre-treatment
T2 sequence (P13667 21-645, species assumed): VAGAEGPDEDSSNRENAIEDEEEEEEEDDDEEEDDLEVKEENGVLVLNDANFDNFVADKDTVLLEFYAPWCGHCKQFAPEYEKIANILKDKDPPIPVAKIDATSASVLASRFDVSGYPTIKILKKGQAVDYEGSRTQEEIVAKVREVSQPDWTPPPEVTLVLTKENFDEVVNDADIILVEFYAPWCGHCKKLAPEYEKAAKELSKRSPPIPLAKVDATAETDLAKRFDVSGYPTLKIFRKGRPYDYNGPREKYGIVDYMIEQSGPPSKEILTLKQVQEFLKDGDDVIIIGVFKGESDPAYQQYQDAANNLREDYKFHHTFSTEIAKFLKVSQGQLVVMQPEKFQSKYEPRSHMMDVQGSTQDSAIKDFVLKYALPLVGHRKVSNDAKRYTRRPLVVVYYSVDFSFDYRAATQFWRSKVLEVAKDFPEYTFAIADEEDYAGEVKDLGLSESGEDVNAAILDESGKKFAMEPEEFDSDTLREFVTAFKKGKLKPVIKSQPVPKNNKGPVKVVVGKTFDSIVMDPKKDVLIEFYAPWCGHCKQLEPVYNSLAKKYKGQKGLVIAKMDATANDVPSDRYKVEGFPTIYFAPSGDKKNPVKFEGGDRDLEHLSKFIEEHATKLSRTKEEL

[5] = system: HEK293^DAX cells stably expressing PDIA1 shRNA; details: KSC-34 40 μM, ELISA and [35S] metabolic labeling
[6] = system: HEK293^Trex cells stably expressing ^FTALLC; test: Viability by Cell Titre Glo; format: cell-based; details: KSC-34 40 μM, Cell Titre Glo after media conditioning
PDIA1 [7] = molecular target: T3, PDIA1 (Homo sapiens, UniProt P07237); details: MCF-7 cells, KSC-34 5 μM; ~5 in the DMSO control
T3 sequence (P07237 18-508): as the sequence (P07237 18-508) above

[8] = system: HEK293^Trex cells stably expressing ^FTALLC; test: FTALLC secretion by ELISA; format: cell-based; details: KSC-34 40 μM, 4 h pretreatment, 2 h conditioning, compared to vehicle
PDIA6 = PDIA6 (Homo sapiens, UniProt Q15084); details: MCF-7 cells, KSC-34 5 μM
Chain of PDIA6 (Q15084 20-440): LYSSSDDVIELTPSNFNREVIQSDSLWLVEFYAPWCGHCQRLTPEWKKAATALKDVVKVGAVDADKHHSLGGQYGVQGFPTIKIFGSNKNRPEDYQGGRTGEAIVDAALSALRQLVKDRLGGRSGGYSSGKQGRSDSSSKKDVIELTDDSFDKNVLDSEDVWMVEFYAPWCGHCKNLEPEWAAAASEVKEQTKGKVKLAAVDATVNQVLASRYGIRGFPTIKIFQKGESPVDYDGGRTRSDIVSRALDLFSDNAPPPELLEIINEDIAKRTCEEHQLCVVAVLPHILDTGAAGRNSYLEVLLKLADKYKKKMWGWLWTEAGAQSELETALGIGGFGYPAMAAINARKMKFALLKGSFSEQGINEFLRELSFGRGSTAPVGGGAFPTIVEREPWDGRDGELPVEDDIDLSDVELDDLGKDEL

PDIA1 [9] = molecular target: T3, PDIA1; details: HEK293^DAX cells, KSC-34 40 μM, 1 h pre-treatment
MCF-7 cells [10] = system: MCF-7 cells
PDIA1 C53A and C397A = format: binding; details: from IC50 values; PDIA1 C53A and C397A 50 μg/mL in MCF-7 lysates 1 mg/mL, CA-Rh 8 μM
PDIA1 [11] = molecular target: T3, PDIA1; test: Insulin turbidity assay; details: for kinact/KI: 0.5 μM PDIA1, 0.16 mM insulin, 1 mM DTT, varying concentrations and pre-incubation times
SKOV-3 = test: qPCR analysis of UPR target genes; format: cell-based; details: SKOV-3 cells
PDIA1 [12] = molecular target: T3, PDIA1; details: 5 μM, MCF-7 cells, 3 hours at 37 °C
PDIA4 [13] = molecular target: T2, PDIA4; details: PDIA4 50 μg/mL, with or without MCF-7 lysates 1 mg/mL
PDIA3 = PDIA3 (Homo sapiens, UniProt P30101); details: PDIA3 50 μg/mL, with or without MCF-7 lysates 1 mg/mL
Chain of PDIA3 (P30101 25-505, species assumed): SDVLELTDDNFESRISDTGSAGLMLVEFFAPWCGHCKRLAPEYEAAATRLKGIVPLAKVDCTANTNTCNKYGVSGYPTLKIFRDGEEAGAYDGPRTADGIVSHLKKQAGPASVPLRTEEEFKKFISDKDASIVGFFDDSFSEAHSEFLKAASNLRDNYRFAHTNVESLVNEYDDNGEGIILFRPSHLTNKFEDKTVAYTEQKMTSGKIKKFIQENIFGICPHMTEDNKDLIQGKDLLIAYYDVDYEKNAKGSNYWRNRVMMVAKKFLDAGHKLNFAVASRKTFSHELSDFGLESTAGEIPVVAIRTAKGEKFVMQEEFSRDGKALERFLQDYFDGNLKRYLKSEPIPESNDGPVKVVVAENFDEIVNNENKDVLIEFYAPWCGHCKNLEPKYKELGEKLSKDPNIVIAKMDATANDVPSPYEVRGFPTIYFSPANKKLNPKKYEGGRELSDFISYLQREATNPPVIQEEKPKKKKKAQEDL

HEK293^DAX cells = test: [35S] metabolic labeling, fraction FTALLC secreted; format: cell-based; details: KSC-34 40 μM added 1 h prior to labeling and throughout
MCF-7 cells [14] = details: read-out: EC50 MTT cell viability
PDIA1 C53A = PDIA1 C53A (Homo sapiens, UniProt P07237, C53A); details: KSC-34 5 μM, protein 50 μg/mL, 1 hour
Chain of PDIA1 C53A (P07237 18-508 C53A): as the sequence (P07237 18-508) above, with C36A counted along it

Chain of endogenous PDIA1 (P07237 18-508): as the sequence (P07237 18-508) above
Chain of prostaglandin E synthase 2 (PTGES2) (Q9H7Z7 whole entry): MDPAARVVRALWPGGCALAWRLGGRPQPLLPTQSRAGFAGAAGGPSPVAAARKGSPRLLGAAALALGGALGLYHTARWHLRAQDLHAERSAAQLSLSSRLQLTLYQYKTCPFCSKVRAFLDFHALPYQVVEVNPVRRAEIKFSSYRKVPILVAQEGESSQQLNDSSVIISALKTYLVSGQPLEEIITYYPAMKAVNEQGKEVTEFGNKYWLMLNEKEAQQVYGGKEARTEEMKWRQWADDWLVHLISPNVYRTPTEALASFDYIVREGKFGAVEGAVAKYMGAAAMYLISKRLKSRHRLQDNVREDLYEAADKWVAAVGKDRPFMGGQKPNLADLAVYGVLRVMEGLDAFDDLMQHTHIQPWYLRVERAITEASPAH

average spectral counts PTGES2 [1]: ~ 120 spectral counts
covalent modification of PDIA1 relative to RB-11-ca [3]: equal or greater potency to RB-11-ca
average spectral counts matched to PDIA1 (PDIA1 [7]): ~ 2000 spectral counts
spectral counts PDIA6 (PDIA6): ~ 20 spectral counts
interaction of PDIA1 with FTALLC (co-IP) (PDIA1 [9]): disrupted this interaction
kinact/KI (PDIA1 [11]): 9660 M⁻¹ s⁻¹
potency (kinact/KI) relative to RB-11-ca (PDIA1 [11]; insulin turbidity assay): ~ 3 fold
potency of PDIA1 modification in living cells compared to RB-11-ca (PDIA1 [12]): ~ 8 fold
labeling of PDIA4 (PDIA4 [13]): absence of fluorescence
labeling of PDIA3 (PDIA3): absence of fluorescence
EC50 (MCF-7 cells [14]): 82 µM
labeling of PDIA1 C53A (PDIA1 C53A): absence of fluorescence
Compound: C#CCNc1nc(NCCNC(=O)CCl)nc(N(C)CCCCc2ccccc2)n1 [KSC-34]
covalent modification of endogenous PDIA1 relative to RB-11-ca (endogenous PDIA1): equal or greater potency toward PDIA1 compared to RB-11-ca
covalent modification of PDIA1 relative to RB-11-ca [2]: equal or greater potency compared to RB-11-ca
interaction of PDIA4 with FTALLC (co-IP) (PDIA4 [4]): does not influence the interaction between these proteins
KSC-34-dependent reduction in FTALLC secretion upon depletion of PDIA1 [5]: attenuated
effect on IRE1α-dependent UPR transcripts (A549 cells): no significant effects
reduction in cellular viability [6]: 20%
reduction of FTALLC levels in conditioned media [8]: 40%
timeframe of IRE1α activation (MCF-7 cells [10]): < 6 h
activation of the PERK and ATF6 arms of the UPR (MCF-7 cells [10]; 4–40 μM, 3 hours at 37 °C): no significant activation
increase in SEC24D and ERDJ4 mRNA levels (MCF-7 cells [10]; >20 μM KSC-34, 3 hours, relative to DMSO): ~ 2 fold
selectivity for the a domain over the a′ domain (PDIA1 C53A and C397A): 30 fold
effect on IRE1α-dependent UPR transcripts (SKOV-3): no significant effects
reduction of fraction of [35S]-labeled FTALLC secreted (HEK293^DAX cells): 30%

kinact/KI (PDIA1 [11]): 252 M⁻¹ s⁻¹
Compound: 16F16 [reference compound]
selectivity for the a domain over the a′ domain (PDIA1 C53A and C397A): 2 fold

Source: publication PMC5884060 (Biochemistry, 2018)
